Data reported in patent publication EP1180991B1, “GAMBOGIC ACID DERIVATIVES AS ACTIVATORS OF CASPASES AND INDUCERS OF APOPTOSIS” (Cytovia, Inc., priority 1999, dated 2000).

What was measured:
KB-V1 = details: Lin et al. 1993; cited from earlier work
PC-3 [1] = assay: Caspase activity with and without caspase inhibitor (Example 97); assay type: cell-based, human; set-up: key to Inhibition of caspase activity by Inhibitor: The caspase activity detected was inhibited by the caspase inhibitor (+)
Experimental: (§1) T47D, ZR-75, PC3, SHP-77 and A-549 cells were maintained and harvested as described in Example 90. Cells were added to 96-well plates as described in Example 90. The cells were treated with 10 µM gambogic acid, in the presence and in the absence of 10 µM caspase inhibitor cbz-Val-Asp-fink (Cytovia, Inc.; WO99/18781). The plate was incubated up to 24 h at 37° C in a 5% CO2-95% humidity incubator. Caspase activity was determined by addition of a fluorogenic substrate as described in Example 90.
(§2) Gambogic acid induced caspase activity in a ratio of greater than 2.5 (+) above untreated cell levels in all the tested cancer cell lines (Table IV). The caspase activity detected was inhibited by the caspase inhibitor (+), confirming that the fluorescent signal was due to caspase activity. Table IV. Gambogic Acid as Caspase Inducers in Solid Tumor Cells

A-549 [2] = assay: as above; assay type: cell-based, human; set-up: key to Inhibition of caspase activity by Inhibitor: The caspase activity detected was inhibited by the caspase inhibitor (+)
Experimental: as §1, §2

ZR-75 = assay: as above; assay type: cell-based, human; set-up: key to Inhibition of caspase activity by Inhibitor: The caspase activity detected was inhibited by the caspase inhibitor (+)
Experimental: as §1, §2

SHP-77 [3] = assay: as above; assay type: cell-based, human; set-up: key to Inhibition of caspase activity by Inhibitor: The caspase activity detected was inhibited by the caspase inhibitor (+)
Experimental: as §1, §2

T47D = assay: as above; assay type: cell-based, human; set-up: key to Inhibition of caspase activity by Inhibitor: The caspase activity detected was inhibited by the caspase inhibitor (+)
Experimental: as §1, §2

T47D cells = assay: Morphological change of cells, phase contrast (Example 93); assay type: cell-based, human; details: 2.5 µM
Experimental: In addition, apoptotic adherent cells in culture lose their ability to remain attached to the culture dish. The ability of gambogic acid to trigger these morphological changes in T47D cells was investigated.
60 mm culture dishes were seeded with 750,000. T47D cells and the cultures were incubated under normal growth conditions (complete medium with 10% FBS) for 24 h. The cells were then treated with 2.5 µM of gambogic acid and further incubated under normal growth conditions for 2 or 6 h. Morphological changes were documented by photographing the cells under phase contrast illumination.

MRC-5 = assay: Inhibition of cell proliferation (GI50) and cell death (LC50), CellTiter 96 (Example 91); assay type: cell-based, human; details: Homo sapiens, MRC5; MRC-5 non-transformed fibroblasts; 48 h; dose for 50% inhibition of cell proliferation; read-out: GI50
Experimental: (§3) T-47D, ZR-75-1, PC-3, human prostate cancer cell line DU-145, human non-small cell lung cancer cell line A-549, human small cell lung cancer cell line SHP-77, HL-60 and MRC-5 cells were grown and harvested as in Example 90. […] The samples were mixed by agitation and incubated at 37° C for 2-4 h in a 5% CO2-95% humidity incubator. […] This determines the possible background absorbance of the test compounds. No absorbance for gambogic acid or its analogs or derivatives was found at 490 nm. After the 2-4 h incubation, the samples were read for absorbance as above (ATest).
(§4) The samples were mixed by agitation and incubated at 37° C for 2-4 h in a 5% CO2-95% humidity incubator. Absorbance was read as above, (AT=0) defining absorbance for initial cell number used as baseline in GI50 determinations and (Amin) defining absorbance for media alone used as baseline in LC50 determinations.
(§5) GI50 (dose for50%inhibition of cell proliferation) 50 = 100 x [(ATest-AT = 0)/(Amax-AT = 0)] [formula] LC50 (dose for50%cell death) 50 = 100 x [(ATest-Amin)/(AT = 0-Amin)] [formula]

[4] = as above; assay type: cell-based, human; details: human, mrc-5 cells; MRC-5 non-transformed fibroblasts; 48 h; dose for 50% cell death
Experimental: as §3, §4, §5

HEL cells = details: Asano et al. 1996; cited from earlier work
HeLa = details: Asano et al. 1996; cited from earlier work
PC-3 [5] = assay: Inhibition of cell proliferation (GI50) and cell death (LC50), CellTiter 96 (Example 91); assay type: cell-based; details: Homo sapiens, PC-3, 48 h
Experimental: as §3, §4, §5

ZR-75-1 = assay: as above; assay type: cell-based; details: Homo sapiens, ZR-75-1, 48 h
Experimental: as §3, §4, §5

HL-60 = assay: as above; assay type: cell-based; details: Homo sapiens, HL-60, 48 h
Experimental: as §3, §4, §5

T-47D = assay: as above; assay type: cell-based; details: Homo sapiens, T47D, T-47D, 48 h
Experimental: as §3, §4, §5

A-549 [6] = assay: as above; assay type: cell-based; details: Homo sapiens, A549, A-549, 48 h
Experimental: as §3, §4, §5

SHP-77 [7] = assay: as above; assay type: cell-based; details: Homo sapiens, SHP77, SHP-77, 48 h
Experimental: as §3, §4, §5

DU-145 = assay: as above; assay type: cell-based; details: Homo sapiens, DU-145, 48 h
Experimental: as §3, §4, §5

KB = details: Lin et al. 1993; cited from earlier work
[8] = 10 µM plus 10 µM caspase inhibitor cbz-Val-Asp-fink
[9] = Homo sapiens, 10 µM, up to 24 h
[10] = dose for 50% cell death, read-out: LC50 (the source's name)
[11] = dose for 50% inhibition of cell proliferation, read-out: GI50

CC(C)=CCC[C@]1(C)C=Cc2c(O)c3c(c(CC=C(C)C)c2O1)O[C@]12C(=C[C@@H]4C[C@H]1C(C)(C)O[C@@]2(C/C=C(/C)C(=O)O)C4=O)C3=O [Example 1, Gambogic Acid]
cytotoxicity (KB-V1): cytotoxic | Inhibition of caspase activity by Inhibitor (PC-3 [1]; [8]): + | fold induction at 10 µM (PC-3 [1]; [9]): > 2.5 | Inhibition of caspase activity by Inhibitor (A-549 [2]; [8]): + | fold induction at 10 µM (A-549 [2]; Homo sapiens, A549, 10 µM, up to 24 h): > 2.5 | Inhibition of caspase activity by Inhibitor (ZR-75; [8]): + | fold induction at 10 µM (ZR-75; Homo sapiens, ZR75, 10 µM, up to 24 h): > 2.5 | Inhibition of caspase activity by Inhibitor (SHP-77 [3]; [8]): + | fold induction at 10 µM (SHP-77 [3]; Homo sapiens, SHP77, 10 µM, up to 24 h): > 2.5 | Inhibition of caspase activity by Inhibitor (T47D; [8]): + | fold induction at 10 µM (T47D; [9]): > 2.5 | apoptotic morphological changes (T47D cells; 2 h (Fig. 1B)): many of the cells have taken on a rounded, phase-bright morphology | apoptotic morphological changes (T47D cells; 6 h (Fig. 1C)): most of the cells in the culture are rounded up and are beginning to detach from the dish | GI50 (MRC-5): 400 nM | CC50 at 48 h [4]: 500 nM | cytotoxicity (HEL cells): cytotoxic | cytotoxicity (HeLa): cytotoxic | CC50 (PC-3 [5]; [10]): 700 nM | GI50 (PC-3 [5]; [11]): 500 nM | CC50 (ZR-75-1; [10]): 500 nM | GI50 (ZR-75-1; [11]): 400 nM | CC50 (HL-60; [10]): 700 nM | GI50 (HL-60; [11]): 500 nM | CC50 (T-47D; [10]): 450 nM | GI50 (T-47D; [11]): 65 nM | CC50 (A-549 [6]; [10]): 5000 nM | GI50 (A-549 [6]; [11]): 800 nM | CC50 (SHP-77 [7]; [10]): 500 nM | GI50 (SHP-77 [7]; [11]): 500 nM | CC50 (DU-145; [10]): 800 nM | GI50 (DU-145; [11]): 500 nM | cytotoxicity (KB): cytotoxic
